Some test systems named below: OVCAR-4 ovarian; HCT-116 colon; 786-0 renal; HL-60(TB) leukemia; U251 CNS; MDA-MB-435; SK-MEL-5 melanoma; MDA-MB-231 breast; NCI-H23 lung; UACC-257 melanoma; UACC-62 melanoma.
Common to all, as to assay: NCI anticancer screen, dose series, 48 h

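Protocol summary: plate cells (96-well), add compound at 5 concentrations, incubate 48 h, interpolate endpoints linearly. TGI marks complete inhibition of growth.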

Take `Cc1cc2ncn(CC(=O)O)c2cc1C`: the TGI in the assay on OVCAR-4 ovarian, in the assay with HCT-116 colon, in the assay on 786-0 renal, in the assay with HL-60(TB) leukemia, in the assay on U251 CNS and in the assay on MDA-MB-435 was above 100 µM each time. Besides, the TGI in the assay with SK-MEL-5 melanoma, in the assay on MDA-MB-231 breast, in the assay with NCI-H23 lung, with UACC-257 melanoma and in the assay with UACC-62 melanoma was above 100 µM throughout.

Regarding `O=C(CCCc1cccc2[nH]c3c(c12)CN(Cc1ccccc1)CC3)c1ccc(F)cc1`, the TGI in the assay on OVCAR-4 ovarian is above 100 µM; with HCT-116 colon, above 100 µM; with 786-0 renal it was above 100 µM; in the assay with HL-60(TB) leukemia it was 10.3 µM; with U251 CNS it was above 100 µM; in the assay on MDA-MB-435, above 100 µM. In addition, the TGI was 45.8 µM with SK-MEL-5 melanoma; above 100 µM in the assay with MDA-MB-231 breast; above 52.3 µM with NCI-H23 lung; above 100 µM with UACC-257 melanoma; above 100 µM in the assay on UACC-62 melanoma.

In the case of `CC(C#N)(NO)C(C)(C#N)NO` (stereo unspecified), the TGI with OVCAR-4 ovarian, in the assay with HCT-116 colon, with 786-0 renal, in the assay with HL-60(TB) leukemia, in the assay on U251 CNS and with MDA-MB-435 was above 100 µM in each case. Besides, the TGI in the assay with SK-MEL-5 melanoma, in the assay with MDA-MB-231 breast, in the assay on NCI-H23 lung, in the assay with UACC-257 melanoma and in the assay with UACC-62 melanoma was above 100 µM throughout.

For the compound `Cc1cc(=O)[nH]c2cc(NC(=O)C(C)NC(=O)C(C)NC(=O)C(C)NC(=O)OC(C)(C)C)ccc12` (stereo unspecified), the TGI in the assay on OVCAR-4 ovarian, with HCT-116 colon, in the assay on 786-0 renal, with HL-60(TB) leukemia, with U251 CNS and in the assay with MDA-MB-435 was above 15 µM each time. Also, the TGI in the assay with SK-MEL-5 melanoma, in the assay on MDA-MB-231 breast, with NCI-H23 lung, with UACC-257 melanoma and in the assay with UACC-62 melanoma was above 15 µM each time.

Consider `COc1ccc(-c2c(C#N)c(N)[nH]c(=S)c2C#N)cc1`, for which the TGI with OVCAR-4 ovarian was above 100 µM; in the assay on HCT-116 colon it was 93.8 µM; in the assay with 786-0 renal, 47.3 µM; in the assay with HL-60(TB) leukemia it was 69.2 µM; in the assay with U251 CNS it was above 100 µM; in the assay on MDA-MB-435, 95.5 µM. For the same compound, the TGI in the assay on SK-MEL-5 melanoma, in the assay with MDA-MB-231 breast, in the assay with NCI-H23 lung, in the assay with UACC-257 melanoma and with UACC-62 melanoma was above 100 µM throughout.

Consider `N=C1OC(CN2CCN(c3ccccc3)CC2)CN1C(=O)Nc1ccccc1` (stereo unspecified), for which the TGI with OVCAR-4 ovarian, in the assay with HCT-116 colon, in the assay on 786-0 renal, with HL-60(TB) leukemia, in the assay on U251 CNS and in the assay on MDA-MB-435 was above 100 µM in each case. The TGI in the assay with SK-MEL-5 melanoma, in the assay on MDA-MB-231 breast, in the assay with NCI-H23 lung, with UACC-257 melanoma and in the assay on UACC-62 melanoma was above 100 µM throughout.

The values above are taken from PubChem BioAssay (NCI).
